# How the values were obtained:
# [1] = Sun Protection Factor of treated fabric, AS/NZS 4399:1996, Melbourne sunlight; conditions: Cotton-cretone; bleached, then fresh bath with 0.01% UV absorber (102) followed by 0.2% compound (101), relative to fabric weight; average of 4 measurements
# Description: (§1) The sun protection factor is defined as the ratio of the harmful dose of UV energy on protected skin to the harmful dose of UV energy on unprotected skin. Accordingly, a sun protection factor is also a measure of the transmissivity of fibre materials untreated and of those treated with FWA's and reactive UV absorbers described in this invention.
# (§2) The sun protection factor can be determined, for example, by the method described by B. L. Diffey and J.Robson in J.Soc.Cosmet.Chem., 40, 127-133 (1989).
# (§3) Two samples each of 10 g. of a pre-washed cellulose fabric (cotton cretonne) are treated in an AHIBA® dyeing machine for 60 minutes at 95° C. at a liquor ratio of 1:20 in two different aqueous liquors.
# (§4) A) 3.0 ml/l hydrogen peroxide 35% • 2.0 ml/l sodium silicate 38° Bé • 2.0 ml/l caustic soda 36° Bé • 0.5 g/l ULTRAVON EL
# (§5) B) The same liquor as in A), but containing additionally • 0.012% compound of formula (101) according to Example 1.
# Two samples each of 10 g. of a pre-washed cellulose fabric (cotton cretonne or cotton poplin, respectively) are treated in an AHIBA® dyeing machine for 60 minutes at 95° C. at a liquor ratio of 1:20 in an aqueous liquor containing:
# The samples are then treated for 10 minutes at 40° C. at a liquor ratio of 1:20 in a fresh bath containing 0.01% (relative to the weight of the fabric) of the compound of the formula [drawing 25] […]
# [2] = as above; conditions: Cotton-Poplin; bleached, then fresh bath with 0.01% UV absorber (102) followed by 0.2% compound (101), relative to fabric weight; average of 4 measurements
# Description: as §1, §2, §3, §4, §5
# If the procedure of Example 9 is repeated, but with samples of different cellulose fabric (cotton poplin) the results of the following table are obtained.
# Two samples each of 10 g. of a pre-washed cellulose fabric (cotton cretonne or cotton poplin, respectively) are treated in an AHIBA® dyeing machine for 60 minutes at 95° C. at a liquor ratio of 1:20 in an aqueous liquor containing: […]
smiles,measurement,setting,value
CCOc1ccc(NC(=O)C(=O)Nc2ccc(Nc3nc(Cl)nc(Nc4ccc(S(=O)(=O)CCOS(=O)(=O)[O-])cc4)n3)cc2)cc1S(=O)(=O)[O-].[Na+].[Na+] [compound (102)],SPF value,[1],additional improvement
same,SPF value,[2],additional improvement

# Reference: patent US20050106114A1, “Process for improving the sun protection factor of cellulosic fibre material” (priority 2002, published 2005)
